Test results published in ChEMBL document CHEMBL1201862, “PubChem BioAssay data set” (2004).
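Tested at 5 concentrations; 48 h exposure; 96-well plates; endpoints linearly interpolated, else capped at highest concentration. Abbreviation: GI50, concentration required for 50% inhibition of growth.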 The source made the active and inactive calls. No stated cut-off is given here; in the data, active = GI50 up to about 1.1 µM and inactive = higher.

Experiments:
Assay in all cases: inhibition of tumour cell growth, NCI panel, 48 h
[1] = test system: SN12C
[2] = test system: XF498
[3] = test system: NCI-H23
[4] = test system: CAKI-1
[5] = test system: HT-29
[6] = test system: SNB-19
[7] = test system: SK-OV-3
[8] = test system: UO-31
[9] = test system: A498
[10] = test system: SW-620
[11] = test system: OVCAR-5
[12] = test system: SR
[13] = test system: RXF 393
[14] = test system: M19-MEL
[15] = test system: HOP-62
[16] = test system: IGROV-1
[17] = test system: SK-MEL-2
[18] = test system: NCI-H226
[19] = test system: U-251
[20] = test system: HL-60
[21] = test system: DMS-273
[22] = test system: OVCAR-4
[23] = test system: DLD-1
[24] = test system: 786-0
[25] = test system: ACHN
[26] = test system: SNB-75
[27] = test system: SK-MEL-5
[28] = test system: MOLT-4
[29] = test system: OVCAR-8
[30] = test system: LXFL 529
[31] = test system: OVCAR-3
[32] = test system: NCI-H460
[33] = test system: SF-539
[34] = test system: DMS-114
[35] = test system: SF-295
[36] = test system: CCRF-CEM
[37] = test system: K562
[38] = test system: A549
[39] = test system: M14
[40] = test system: KM-20L2
[41] = test system: SK-MEL-28
[42] = test system: EKVX
[43] = test system: TK-10
[44] = test system: NCI-H522
[45] = test system: KM12
[46] = test system: HCC 2998
[47] = test system: SF-268
[48] = test system: SNB-78
[49] = test system: Malme-3M
[50] = test system: HCT-116
[51] = test system: UACC-257
[52] = test system: UACC-62
[53] = test system: RPMI-8226
[54] = test system: HOP-92
[55] = test system: COLO 205
[56] = test system: HCT-15
[57] = test system: LOX IMVI

Compound: Oc1c(-c2ccccc2)nc2ccccn12
- GI50 [1]: > 100 µM (inactive)
- GI50 [2]: > 100 µM (inactive)
- GI50 [3]: > 100 µM (inactive)
- GI50 [4]: > 100 µM (inactive)
- GI50 [5]: > 100 µM (inactive)
- GI50 [6]: > 100 µM (inactive)
- GI50 [7]: > 100 µM (inactive)
- GI50 [8]: > 100 µM (inactive)
- GI50 [9]: > 100 µM (inactive)
- GI50 [10]: > 100 µM (inactive)
- GI50 [11]: > 100 µM (inactive)
- GI50 [12]: > 100 µM (inactive)
- GI50 [13]: > 100 µM (inactive)
- GI50 [14]: > 100 µM (inactive)
- GI50 [15]: > 100 µM (inactive)
- GI50 [16]: > 100 µM (inactive)
- GI50 [17]: > 100 µM (inactive)
- GI50 [18]: > 100 µM (inactive)
- GI50 [19]: > 100 µM (inactive)
- GI50 [20]: > 100 µM (inactive)
- GI50 [21]: > 100 µM (inactive)
- GI50 [22]: > 100 µM (inactive)
- GI50 [23]: > 100 µM (inactive)
- GI50 [24]: > 100 µM (inactive)
- GI50 [25]: > 100 µM (inactive)
- GI50 [26]: > 100 µM (inactive)
- GI50 [27]: > 100 µM (inactive)
- GI50 [28]: > 100 µM (inactive)
- GI50 [29]: > 100 µM (inactive)
- GI50 [30]: > 100 µM (inactive)
- GI50 [31]: > 100 µM (inactive)
- GI50 [32]: > 100 µM (inactive)
- GI50 [33]: > 100 µM (inactive)
- GI50 [34]: > 100 µM (inactive)
- GI50 [35]: > 100 µM (inactive)
- GI50 [36]: > 100 µM (inactive)
- GI50 [37]: > 100 µM (inactive)
- GI50 [38]: > 100 µM (inactive)
- GI50 [39]: > 100 µM (inactive)
- GI50 [40]: > 100 µM (inactive)
- GI50 [41]: > 100 µM (inactive)
- GI50 [42]: > 100 µM (inactive)
- GI50 [43]: > 100 µM (inactive)
- GI50 [44]: > 100 µM (inactive)
- GI50 [45]: > 100 µM (inactive)
- GI50 [46]: > 100 µM (inactive)
- GI50 [47]: > 100 µM (inactive)
- GI50 [48]: > 100 µM (inactive)
- GI50 [49]: > 100 µM (inactive)
- GI50 [50]: > 100 µM (inactive)
- GI50 [51]: > 100 µM (inactive)
- GI50 [52]: > 100 µM (inactive)

Compound: Cc1ccc(C)c(N2C(=O)C(=O)C(c3nc4ccccc4s3)/C(=N/N)C2=O)c1 (stereo unspecified)
- GI50 [1]: > 100 µM (inactive)
- GI50 [2]: > 100 µM (inactive)
- GI50 [53]: > 100 µM (inactive)
- GI50 [3]: > 80.5 µM (inactive)
- GI50 [4]: > 100 µM (inactive)
- GI50 [5]: > 100 µM (inactive)
- GI50 [6]: > 100 µM (inactive)
- GI50 [7]: > 100 µM (inactive)
- GI50 [8]: > 100 µM (inactive)
- GI50 [54]: > 100 µM (inactive)
- GI50 [10]: > 100 µM (inactive)
- GI50 [11]: > 100 µM (inactive)
- GI50 [12]: > 100 µM (inactive)
- GI50 [13]: > 100 µM (inactive)
- GI50 [14]: > 20.2 µM (inactive)
- GI50 [15]: > 100 µM (inactive)
- GI50 [16]: > 100 µM (inactive)
- GI50 [17]: > 100 µM (inactive)
- GI50 [18]: > 100 µM (inactive)
- GI50 [19]: > 100 µM (inactive)
- GI50 [20]: > 100 µM (inactive)
- GI50 [21]: > 100 µM (inactive)
- GI50 [22]: > 46.9 µM (inactive)
- GI50 [23]: > 100 µM (inactive)
- GI50 [24]: > 100 µM (inactive)
- GI50 [25]: > 100 µM (inactive)
- GI50 [26]: > 100 µM (inactive)
- GI50 [27]: > 100 µM (inactive)
- GI50 [28]: > 100 µM (inactive)
- GI50 [30]: > 100 µM (inactive)
- GI50 [31]: > 100 µM (inactive)
- GI50 [32]: > 100 µM (inactive)
- GI50 [33]: > 100 µM (inactive)
- GI50 [34]: > 100 µM (inactive)
- GI50 [36]: > 100 µM (inactive)
- GI50 [37]: > 100 µM (inactive)
- GI50 [38]: > 100 µM (inactive)
- GI50 [39]: > 100 µM (inactive)
- GI50 [40]: > 100 µM (inactive)
- GI50 [41]: > 100 µM (inactive)
- GI50 [55]: > 39.3 µM (inactive)
- GI50 [42]: > 100 µM (inactive)
- GI50 [43]: > 100 µM (inactive)
- GI50 [44]: > 100 µM (inactive)
- GI50 [45]: > 100 µM (inactive)
- GI50 [46]: > 100 µM (inactive)
- GI50 [47]: > 100 µM (inactive)
- GI50 [48]: > 100 µM (inactive)
- GI50 [49]: > 100 µM (inactive)
- GI50 [56]: > 100 µM
- GI50 [50]: > 34.4 µM (inactive)
- GI50 [51]: > 27.9 µM (inactive)
- GI50 [52]: > 100 µM (inactive)
- GI50 [57]: > 100 µM (inactive)
